Source: article PMC12203428, “Discovery of Clonixeril as a Sub-Femtomolar Modulator of the Human STING Receptor” (ACS Central Science, 2025)

Tests used:
[1] = test system: p-IRF3 in HEK293S cells (hSTING pathway); experiment: Phospho-IRF3 Western blot in HEK293S cells with diABZI3; type: cell-based, human; conditions: 100 fM compound, 100 nM diABZI3, preliminary
Method: HEK293T cells transfected with hSTINGWT cells were seeded in a 6-well plate in DMEM
(supplemented with 10% heat-inactivated fetal bovine serum, 1X Corning Penicillin-Streptomycin
solution and 0.01mg/mL Blasticidin). Upon reaching ~80% confluence, cells were pretreated with
varying concentrations of CXL in FBS-free DMEM for 2 hours. This was followed by treatment
with diABZI3 (100nM) for 1 hour. The cells were scraped, harvested by centrifugation at 1000 x g
for 3 mins. The resulting pellet is resuspended in 1X PBS with 1X Halt protease & phosphatase
inhibitor and 1% NP-40. Cell lysis was performed by probe sonication. The cell lysate is further
denatured in 1X SDS loading buffer by boiling for 10 mins and separated by SDS-PAGE (4-20%
gel). The separated proteins were electrically transferred to a PVDF membranes separately,
which was probed with primary (α-pIRF3, α-IRF3 & α-STING) and secondary (goat anti-rabbit IR
dye 680 & goat anti-mouse IR dye 800CW) antibodies. The blots were visualized using a LICOR
Image Analyzer. All the experiments were performed at least in duplicate.

SUMO-hSTING CTD [2] = target: T1, SUMO-hSTING CTD (Homo sapiens, UniProt Q86WV6, H232R); experiment: Dynamic light scattering of STING oligomerization; conditions: 50 nM STING CTD; S-isomer up to 500 fM; reviewer's reading
T1 sequence (Q86WV6 155-343 H232R): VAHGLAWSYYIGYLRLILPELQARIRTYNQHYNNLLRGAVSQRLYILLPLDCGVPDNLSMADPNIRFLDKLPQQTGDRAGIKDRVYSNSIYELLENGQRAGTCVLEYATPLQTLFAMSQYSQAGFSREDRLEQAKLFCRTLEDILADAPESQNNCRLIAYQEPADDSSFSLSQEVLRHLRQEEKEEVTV
Method: (B) DLS was performed for 2 h (n = 960 measurements) with 50 nM STING exposed to analytes. […] Blue blocks indicate size counts as a percentage to overall mass over selected mass ranges. […] Measurements were made using a Malvern Zetasizer Nano ZS set to 40 measurements at 1 s/measurement and 24 runs.

[3] = target: T2, hSTING CTD (STING R232 variant) (Homo sapiens, UniProt Q86WV6, H232R); experiment: Microscale thermophoresis; type: binding; conditions: for Activity in MST assay: competition with 2′,3′-cGAMP
T2 construct: 6X-His tagged hSTING^WT, R232 variant, CTD protein was purchased; purchased Invivogen (USA) or Cayman Chemicals (USA)
T2 sequence (Q86WV6 153-340 H232R): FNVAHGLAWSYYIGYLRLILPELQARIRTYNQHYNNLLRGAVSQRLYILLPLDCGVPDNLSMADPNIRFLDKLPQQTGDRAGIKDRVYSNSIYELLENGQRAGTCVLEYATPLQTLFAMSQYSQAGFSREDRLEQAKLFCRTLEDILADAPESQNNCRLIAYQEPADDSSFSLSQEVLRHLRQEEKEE
Method: Small molecule affinities at subpicomolar concentrations are typically difficult to determine by MST due to the inability of the detector to measure differential movement of proteins when largely disproportionate ratios of protein to ligand are involved. […] Generally, an IC50 correlates well with a K D when a small molecule competes for binding with a natural substrate for a target protein.
The resulting mixture was centrifuged at 12,000 x RPM 10 min prior to use. […] The samples were run again at 30- and 45 min. Detection of the protein was performed using the blue detection channel with excitation power set to 100% and MST set to high allowing 3 s prior to MST on to check for initial fluorescence differences, 35 s for thermophoresis, and 3 s for regeneration after MST off. Analysis was performed using M.O. Affinity Analysis Software with difference between initial fluorescence measured in the first 5 s as compared with thermophoresis at 30 s at 16 different analyte concentrations ranging from 100 μM to 100 zM and exported into Graphpad Prism v.8 using a Log inhibitor versus response for parameter fit.

[4] = test system: IFN-β expression in HEK293 cells; experiment: HEK293 real-time qPCR for IFN-β; conditions: 4 μM 2′,3′-cGAMP 3 h, positive control
Method: IFN-β expression levels were measured using real-time qPCR.
HEK293 cells were seeded at 700,000 cells per 60 mm plate confluency and treated 36 h later.

STING = test system: STING; design: method as in Ergun et al.; conditions: ref Ergun et al., cited from earlier work
STING CTD = target: STING CTD; design: method as in not given; conditions: ref not given; read-out: KD previously reported (ITC); cited from earlier work
SUMO-hSTING CTD [5] = target: T1, SUMO-hSTING CTD; experiment: Isothermal titration calorimetry; type: binding; design: human STING (amino acid 155–343) was synthesized and subcloned into pET28a vector; made in house; host or cells: E. coli BL21(DE3)
Description: In order to further explore the interaction between CXL and hSTING CTD, we employed Isothermal calorimetry (ITC) to measure the heat evolved accompanying CXL’s effect on SUMO-hSTING^WT CTD. […] In Figure A, we show the ITC data we obtained. […]. […] In Figure B, we also find that the binding isotherm is far from steady state or equilibrium, and thus, we could not obtain reliable thermodynamic parameters. Nonetheless, a significant amount of heat was released in the process of CXL interacting with the hSTING CTD. On the other hand, we were most interested in ITC measurements taken at femtomolar concentrations, given the biophysical experiments and in cellulo studies already described. Initial experiments treating the hSTING CTD with femtomolar concentrations of CXL were unsuccessful, likely due to the insensitivity of the instrument. […]. MicroCal ITC200 instrument (Malvern Pananalytical) was used to assess STING and CXL interactions. Both recombinantly purified STING domains (residues 155–343) containing a SUMO tag and CXL were buffer-exchanged and made in the same buffer composition, respectively, to avoid buffer mismatch. The same buffer cocktail was used in all ITC experiments, containing 25 mM HEPES (pH, 7.4), 150 mM NaCl, 5% glycerol, 0.5 mM TCEP, and 5% DMSO. STING protein from −80 °C aliquots was spun down at 12,000 RPM for 5–10 min before each run to remove any aggregates, diluted into the ITC buffer above (either as 40 μM STING alone or as 40 μM STING plus 20 μM 2,3-cGAMP), and loaded into the cell. CXL at various concentrations for different experiments was loaded into the syringe (Hamilton). For the control and reference, an ITC buffer devoid of CXL was used. ITC experiments were conducted at 25 °C using an initial 0.4 μL injection and 19 subsequent injections of 2 μL each at 150 s intervals. Heat of dilution (differential power) of the 19 injections resulting from the binding event was fitted into the nonlinear least-squares equation incorporated in the MicroCal ITC200 analysis software. The K D and other thermodynamic parameters were derived from curve fitting using MicroCal software.

His-hSTING CTD = target: T3, His-hSTING CTD (Homo sapiens, UniProt Q86WV6, H232R); experiment: Surface plasmon resonance; type: binding; conditions: read-out: KD (SPR)
T3 construct: purchased Invivogen (USA) or Cayman Chemicals (USA)
T3 sequence (Q86WV6 153-340 H232R): as above
Method: SPR was employed for binding measurements using the His-tagged hSTING^WT CDN domain. A GE Healthcare Biacore T200 was equipped with a Ni-NTA chip. […] The sensorgrams were analyzed using Biacore T200 Software 3.0 and steady state was measured at 4 s before injection stop, exported into Graphpad, and fit versus concentration using a one site specific binding model to calculate the apparent equilibrium dissociation constant (K D). Where appropriate, kinetics were measured using a 1:1 Langmuir binding model with R max set to local to obtain the association rate (K on), dissociation (K off)

[6] = target: the molecule itself; experiment: dynamic light scattering; 50 nM STING with 50 nM 2′,3′-cGAMP and a titrated range of analyte (CXL, CXN, H-151), HBS-P pH 7.4, 2 h
[7] = 500 μM c-diGMP to 40 μM hSTING CTD

**Q.** What does the source list for `Cc1c(Cl)cccc1Nc1ncccc1C(=O)OC[C@H](O)CO` (single isomer, unassigned) [R-enantiomer, R-clonixeril]?
**A.** Effect on p-IRF3 [1]: agonistic; Effect of enantiomers on protein aggregate size (SUMO-hSTING CTD [2]): slightly less potent; Activity in MST assay [3]: subfemtomolar activity

**Q.** What does the source list for `Cc1c(Cl)cccc1Nc1ncccc1C(=O)OC[C@@H](O)CO` (single isomer, unassigned) [S-enantiomer, S-clonixeril]?
**A.** Effect on p-IRF3 [1]: no effect; Effect of enantiomers on protein aggregate size (SUMO-hSTING CTD [2]): no effect; Activity in MST assay [3]: an effect at higher concentrations

**Q.** Which “Induction of IFN-β production” value [4] does the source give for `Nc1nc2c(ncn2C2OC3COP(=O)(O)OC4C(COP(=O)(O)OC2C3O)OC(n2cnc3c(N)ncnc32)C4O)c(=O)[nH]1` (stereo not drawn) [2′,3′-cGAMP, cyclic guanosine-(2′→5′)-monophosphate-adenosine-(3′→5′)-monophosphate, reference compound] here?
**A.** 7.4 fold

**Q.** With `Cc1c(Cl)cccc1Nc1ncccc1C(=O)OCCCCOC(=O)c1cccnc1Nc1cccc(Cl)c1C` [Compound 14] as the molecule, how does the “Activity in MST assay” value [3] read?
**A.** quite active

**Q.** For `Cc1cccc(Nc2ccccc2C(=O)OCC(O)CO)c1C` (stereo not drawn) [MFE, mefenamic acid glycerol ester], which “KD (Table S1, Thermophoresis)” value ([3]; +50 nM 23cGAMP) is on record?
**A.** No shift

**Q.** And the “Activity in MST assay” value [3]?
**A.** no indication of activity at any concentration below 1 μM

**Q.** What does the source list for `Nc1nc2c(ncn2C2OC3COP(=O)(O)OC4C(COP(=O)(O)OC3C2O)OC(n2cnc3c(=O)[nH]c(N)nc32)C4O)c(=O)[nH]1` (stereo not drawn) [c-diGMP, cyclic di-GMP, reference compound]?
**A.** Hill coefficient for STING activation (STING): 2.6; IC50 (STING; read-out: IC50 for inhibition of the action of 2′,3′-cGAMP): ~800 nM; Kd (STING CTD): 3700 nM; ΔH0 (ITC) (SUMO-hSTING CTD [5]; [7]): -24.6 kcal/mol; ΔS0 (ITC) (SUMO-hSTING CTD [5]; [7]): −56.5 cal/mol/deg; Kd (SUMO-hSTING CTD [5]; read-out: KD (ITC)): 2170 nM; Kd (His-hSTING CTD): 4780 ± 1650 nM

B1: His-SUMO-TEV-hSTING CTD (domain or fragment, human, UniProt Q86WV6 155-343, looked up)
chain: VAHGLAWSYYIGYLRLILPELQARIRTYNQHYNNLLRGAVSQRLYILLPLDCGVPDNLSMADPNIRFLDKLPQQTGDHAGIKDRVYSNSIYELLENGQRAGTCVLEYATPLQTLFAMSQYSQAGFSREDRLEQAKLFCRTLEDILADAPESQNNCRLIAYQEPADDSSFSLSQEVLRHLRQEEKEEVTV
notes: human STING (stimulator of interferon genes), C-terminal domain, amino acids 155-343, wild type (R232) allele; a TEV site lies between SUMO and STING by the construct's name; Synthetic gene in pET28a; also called SUMO-hSTING CTD; SUMO-hSTING^WT CTD; source: E. coli BL21(DE3), purified (Ni-NTA); not shown: His6, N-terminal, kept; SUMO, N-terminal, kept
**Q.** Does B1 bind [6]?
**A.** binds
